Ends that are not written are not given here.
What was measured:
[1] = test system: antibodies in sera from HCV-seropositive donors; test: ELISA with HCV antibody-positive sera (biotinylated peptides on streptavidin- or avidin-coated plates, unbiotinylated peptides coated directly); type: binding, human
Summary of the method: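 Peptides coated either directly at 2–5 or 3 μg/ml in carbonate buffer pH 9.6, or biotinylated at 1 μg/ml on streptavidin-coated wells (3 μg/ml). Plates casein-blocked, then human sera (1:100 or 1:20) incubated 1 h at 37° C. Bound antibody detected with HRP anti-human Ig/TMB, read as OD450.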

[2] = ELISA with seronegative / negative control sera (specificity); type: binding, human
Summary of the method: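 Specificity readout is OD at 450 nm (HRP goat anti-human Ig, TMB/H2O2, sulfuric acid stop), with ≥0.250 counted positive. Seronegative donor sera (typically 1:100, 1 h, 37° C) were applied to casein-blocked wells coated with peptide directly or via streptavidin capture of biotinylated peptide.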

IIPDREVLYREFDEMEECSQ
optical density (450 nm) ([1]; Table 4F, serum 8315, 20-fold dilution): 2.614 | optical density (450 nm) ([1]; Table 4F, serum 8316, 20-fold dilution): 0.133 | optical density (450 nm) ([1]; Table 4F, serum 8317, 20-fold dilution): 0.855 | optical density (450 nm) ([1]; Table 4F, serum 8318, 20-fold dilution): 1.965 | optical density (450 nm) ([1]; Table 4F, serum 8320, 20-fold dilution): 0.721 | optical density (450 nm) ([1]; Table 4F, serum 8321, 20-fold dilution): 0.283 | optical density (450 nm) ([1]; Table 4F, serum 8326, 20-fold dilution): 2.219 | optical density (450 nm) ([1]; Table 5, sample 8242 (positive), peptide concentration 0.01 micrograms per milliliter, listed as Unbiotinylated HCV peptide IX): 0.049 | optical density (450 nm) ([1]; Table 5, sample 8242 (positive), peptide concentration 0.03 micrograms per milliliter, listed as Unbiotinylated HCV peptide IX): 0.047 | optical density (450 nm) ([1]; Table 5, sample 8242 (positive), peptide concentration 0.1 micrograms per milliliter, listed as Unbiotinylated HCV peptide IX): 0.046 | optical density (450 nm) ([1]; Table 5, sample 8242 (positive), peptide concentration 0.3 micrograms per milliliter, listed as Unbiotinylated HCV peptide IX): 0.048 | optical density (450 nm) ([1]; Table 5, sample 8242 (positive), peptide concentration 1.0 micrograms per milliliter, listed as Unbiotinylated HCV peptide IX): 0.052 | optical density (450 nm) ([1]; Table 5, sample 8242 (positive), peptide concentration 3.0 micrograms per milliliter, listed as Unbiotinylated HCV peptide IX): 0.059 | optical density (450 nm) ([1]; Table 5, sample 8243 (positive), peptide concentration 0.01 micrograms per milliliter, listed as Unbiotinylated HCV peptide IX): 0.054 | optical density (450 nm) ([1]; Table 5, sample 8243 (positive), peptide concentration 0.03 micrograms per milliliter, listed as Unbiotinylated HCV peptide IX): 0.051 | optical density (450 nm) ([1]; Table 5, sample 8243 (positive), peptide concentration 0.1 micrograms per milliliter, listed as Unbiotinylated HCV peptide IX): 0.051 | optical density (450 nm) ([1]; Table 5, sample 8243 (positive), peptide concentration 0.3 micrograms per milliliter, listed as Unbiotinylated HCV peptide IX): 0.051 | optical density (450 nm) ([1]; Table 5, sample 8243 (positive), peptide concentration 1.0 micrograms per milliliter, listed as Unbiotinylated HCV peptide IX): 0.053 | optical density (450 nm) ([1]; Table 5, sample 8243 (positive), peptide concentration 3.0 micrograms per milliliter, listed as Unbiotinylated HCV peptide IX): 0.063 | optical density (450 nm) ([1]; Table 5, sample 8320 (positive), peptide concentration 0.01 micrograms per milliliter, listed as Unbiotinylated HCV peptide IX): 0.059 | optical density (450 nm) ([1]; Table 5, sample 8320 (positive), peptide concentration 0.03 micrograms per milliliter, listed as Unbiotinylated HCV peptide IX): 0.057 | optical density (450 nm) ([1]; Table 5, sample 8320 (positive), peptide concentration 0.1 micrograms per milliliter, listed as Unbiotinylated HCV peptide IX): 0.063 | optical density (450 nm) ([1]; Table 5, sample 8320 (positive), peptide concentration 0.3 micrograms per milliliter, listed as Unbiotinylated HCV peptide IX): 0.122 | optical density (450 nm) ([1]; Table 5, sample 8320 (positive), peptide concentration 1.0 micrograms per milliliter, listed as Unbiotinylated HCV peptide IX): 0.093 | optical density (450 nm) ([1]; Table 5, sample 8320 (positive), peptide concentration 3.0 micrograms per milliliter, listed as Unbiotinylated HCV peptide IX): 0.129 | optical density (450 nm) ([1]; Table 5, sample 8326 (positive), peptide concentration 0.01 micrograms per milliliter, listed as Unbiotinylated HCV peptide IX): 0.049 | optical density (450 nm) ([1]; Table 5, sample 8326 (positive), peptide concentration 0.03 micrograms per milliliter, listed as Unbiotinylated HCV peptide IX): 0.051 | optical density (450 nm) ([1]; Table 5, sample 8326 (positive), peptide concentration 0.1 micrograms per milliliter, listed as Unbiotinylated HCV peptide IX): 0.068 | optical density (450 nm) ([1]; Table 5, sample 8326 (positive), peptide concentration 0.3 micrograms per milliliter, listed as Unbiotinylated HCV peptide IX): 0.078 | optical density (450 nm) ([1]; Table 5, sample 8326 (positive), peptide concentration 1.0 micrograms per milliliter, listed as Unbiotinylated HCV peptide IX): 0.068 | optical density (450 nm) ([1]; Table 5, sample 8326 (positive), peptide concentration 3.0 micrograms per milliliter, listed as Unbiotinylated HCV peptide IX): 0.084 | optical density (450 nm) ([2]; Table 4F, negative serum): 0.052 | optical density (450 nm) ([2]; Table 5, sample 1747 (negative), peptide concentration 0.01 micrograms per milliliter, listed as Unbiotinylated HCV peptide IX): 0.045 | optical density (450 nm) ([2]; Table 5, sample 1747 (negative), peptide concentration 0.03 micrograms per milliliter, listed as Unbiotinylated HCV peptide IX): 0.045 | optical density (450 nm) ([2]; Table 5, sample 1747 (negative), peptide concentration 0.1 micrograms per milliliter, listed as Unbiotinylated HCV peptide IX): 0.045 | optical density (450 nm) ([2]; Table 5, sample 1747 (negative), peptide concentration 0.3 micrograms per milliliter, listed as Unbiotinylated HCV peptide IX): 0.044 | optical density (450 nm) ([2]; Table 5, sample 1747 (negative), peptide concentration 1.0 micrograms per milliliter, listed as Unbiotinylated HCV peptide IX): 0.046 | optical density (450 nm) ([2]; Table 5, sample 1747 (negative), peptide concentration 3.0 micrograms per milliliter, listed as Unbiotinylated HCV peptide IX): 0.046 | optical density (450 nm) ([2]; Table 5, sample 1781 (negative), peptide concentration 0.01 micrograms per milliliter, listed as Unbiotinylated HCV peptide IX): 0.051 | optical density (450 nm) ([2]; Table 5, sample 1781 (negative), peptide concentration 0.03 micrograms per milliliter, listed as Unbiotinylated HCV peptide IX): 0.049 | optical density (450 nm) ([2]; Table 5, sample 1781 (negative), peptide concentration 0.1 micrograms per milliliter, listed as Unbiotinylated HCV peptide IX): 0.052 | optical density (450 nm) ([2]; Table 5, sample 1781 (negative), peptide concentration 0.3 micrograms per milliliter): 0.051 | optical density (450 nm) ([2]; Table 5, sample 1781 (negative), peptide concentration 1.0 micrograms per milliliter, listed as Unbiotinylated HCV peptide IX): 0.052 | optical density (450 nm) ([2]; Table 5, sample 1781 (negative), peptide concentration 3.0 micrograms per milliliter): 0.053
